Laboratory results taken from BindingDB's records for doi:10.7270/Q2D21W1M (Nmmlsc, 2009).

Biological target: T1, GTPase KRas [1-37] (Homo sapiens, UniProt G3V5T7)
T1 construct: 1-37
Assay: wildtype Ras GTP binding inhibitors, SAR follow-up, biochemical, additional analogs, multiplex flow cytometry, Ki (AID 2038)

[1] = inactive by the depositor's call

T1 sequence (G3V5T7 whole entry): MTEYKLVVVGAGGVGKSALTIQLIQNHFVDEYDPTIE

Compound | EC50 [µM] | EC50 [1] [µM]
O=C1Nc2c(Cl)cccc2C1=C1Nc2ccccc2C1=O | 30 | 
O=C1Nc2c(Br)cccc2C1=C1Nc2ccccc2C1=O | 30 | 
O=C1Nc2c(F)cccc2C1=C1Nc2ccccc2C1=O | 30 | 
O=C1NC(=O)/C(=C2/C(=O)Nc3ccccc32)N1 | 30 | 
O=C1Nc2cccc(Br)c2/C1=C1/Cc2ccccc2C1=O |  | 30
O=C1Nc2ccc(Br)cc2C1=C1Nc2ccccc2C1=O | 30 | 
COc1ccc(S(=O)(=O)n2c(N)c(C#N)c(-c3ccccc3)c2C(=O)c2ccc(Br)cc2)cc1 |  | 30
O=[N+]([O-])c1ccc(C#Cc2ccccc2)cc1 |  | 30
O=C(C#Cc1ccccc1)c1ccc(OC(F)(F)F)cc1 |  | 30
COc1ccc(C(=O)C#Cc2ccccc2)cc1 [1-(4-methoxyphenyl)-3-phenyl-2-propyn-1-one] |  | 30
O=C(C#Cc1ccccc1)c1ccc([N+](=O)[O-])cc1 [1-(4-nitrophenyl)-3-phenyl-2-propyn-1-one] |  | 30
CC(C(=O)O)c1cccc(C(=O)c2ccccc2)c1 (configuration not stated) [2-(3-benzoylphenyl)propanoic acid] |  | 30
COc1ccc2cc(CC(=O)O)ccc2c1 [2-(6-methoxynaphthalen-2-yl)ethanoic acid] |  | 30
CC(=O)Oc1ccccc1C(=O)O [2-(acetyloxy)benzoic acid] |  | 30
O=C1Nc2ccccc2/C1=C1/Nc2ccccc2C1=O [2-[(3Z)-2-oxo-2,3-dihydro-1H-indol-3-ylidene]-2,3-dihydro-1H-indol-3-one] | 30 | 
CCCCS(=O)(=O)n1c(N)c(C#N)c(-c2cc(OC)c(OC)c(OC)c2)c1C(=O)c1ccccc1 [2-amino-5-benzoyl-1-butylsulfonyl-4-(3,4,5-trimethoxyphenyl)-3-pyrrolecarbonitrile] |  | 30
COc1ccc(S(=O)(=O)n2c(N)c(C#N)c(-c3cncc(Br)c3)c2C(=O)c2ccccc2)cc1 [2-amino-5-benzoyl-4-(5-bromo-3-pyridinyl)-1-(4-methoxyphenyl)sulfonyl-3-pyrrolecarbonitrile] |  | 30
COc1ccc(-c2c(C#N)c(N)n(S(C)(=O)=O)c2C(=O)c2ccccc2)cc1Br [2-azanyl-4-(3-bromanyl-4-methoxy-phenyl)-1-methylsulfonyl-5-(phenylcarbonyl)pyrrole-3-carbonitrile] |  | 30
COc1cc(-c2c(C#N)c(N)n(S(=O)(=O)c3c(C(C)C)cc(C(C)C)cc3C(C)C)c2C(=O)c2ccccc2)cc(OC)c1OC [2-azanyl-5-(phenylcarbonyl)-4-(3,4,5-trimethoxyphenyl)-1-[2,4,6-tri(propan-2-yl)phenyl]sulfonyl-pyrrole-3-carbonitrile] |  | 30
O=C1N=c2ccccc2=C1c1[nH]c2ccccc2c1NO [3-[3-(hydroxyamino)-1H-indol-2-yl]-2-indolone] | 30 | 
O=C(C#Cc1ccccc1)c1cccnc1 [3-phenyl-1-pyridin-3-ylprop-2-yn-1-one] |  | 30

Compound | EC50 [µM] | EC50 [1] [µM]
COC(=O)c1ccc(C(=O)C#Cc2ccccc2)cc1 [4-(1-oxo-3-phenylprop-2-ynyl)benzoic acid methyl ester] |  | 30
N#Cc1ccc(C(=O)C#Cc2ccccc2)cc1 [4-(3-phenylprop-2-ynoyl)benzenecarbonitrile] |  | 30
O=C1N=c2ccc(Br)cc2=C1c1[nH]c2ccccc2c1NO [5-bromanyl-3-[3-(oxidanylamino)-1H-indol-2-yl]indol-2-one] | 30 | 
O=C1N=c2c(Br)cccc2=C1c1[nH]c2ccccc2c1NO [7-bromanyl-3-[3-(oxidanylamino)-1H-indol-2-yl]indol-2-one] | 37.5 | 
O=C1N=c2c(Cl)cccc2=C1c1[nH]c2ccccc2c1NO [7-chloro-3-[3-(hydroxyamino)-1H-indol-2-yl]-2-indolone] | 30 | 
O=C1N=c2c(F)cccc2=C1c1[nH]c2ccccc2c1NO [7-fluoro-3-[3-(hydroxyamino)-1H-indol-2-yl]-2-indolone] | 30 | 
O=C1Nc2c(Br)cccc2/C1=C1/Cc2ccccc2C1=O [(3E)-7-bromo-3-(3-oxo-1H-inden-2-ylidene)-1H-indol-2-one] |  | 30
O=C1NC(=S)N/C1=C1\C(=O)Nc2ccccc21 [(3Z)-3-(5-oxo-2-sulfanylideneimidazolidin-4-ylidene)-1H-indol-2-one] | 30 | 
CC(C)Cc1ccc([C@H](C)C(=O)O)cc1 [(S)-2-(4-Isobutyl-phenyl)-propionic acid] |  | 30
O=C1Nc2ccccc2/C1=C1/Cc2ccccc2C1=O [UNM-0000305763] |  | 30
N#Cc1c(-c2ccc(Cl)cc2)c(C(=O)c2ccccc2)n(S(=O)(=O)c2ccc([N+](=O)[O-])cc2)c1N [UNM-0000305780] |  | 30
COc1ccc(S(=O)(=O)n2c(N)c(C#N)c(-c3cc(Br)c(OC)c(OC)c3)c2C(=O)c2ccccc2)cc1 [UNM-0000305782] |  | 30
O=C(C#Cc1ccccc1)c1ccccc1[N+](=O)[O-] [UNM-0000306038] |  | 30
O=C(C#Cc1ccccc1)c1ccccc1 [UNM-0000306039] |  | 30
O=C(C#Cc1ccccc1)c1ccc(Cl)cc1 [UNM-0000306055] |  | 30
O=C(C#Cc1ccccc1)c1ccc(F)cc1 [UNM-0000306059] |  | 31
COc1ccc2cc([C@H](C)C(=O)O)ccc2c1 [UNM-0000306098] | 30 | 
CC1=C(CC(=O)O)c2cc(F)ccc2/C1=C/c1ccc([S+](C)[O-])cc1 (configuration not stated) [UNM-0000306136] |  | 30
C[C@@H](C(=O)O)c1cccc(Oc2ccccc2)c1 [calcium;2-(3-phenoxyphenyl)propanoic acid;hydrate] | 30 | 
COc1ccc2cc([C@@H](C)C(=O)O)ccc2c1 [sodium;(2R)-2-(6-methoxy-2-naphthalenyl)propanoate] | 3.11 | 
CSc1ccc(/C=C2/C(C)=C(CC(=O)O)c3cc(F)ccc32)cc1 [{6-Fluoro-2-methyl-3-[1-(4-methylsulfanyl-phenyl)-meth-(E)-ylidene]-3H-inden-1-yl}-acetic acid] |  | 30
